Results as given in patent US8562949B2, “Radiolabeled dihydrotetrabenazine derivatives and their use as imaging agents” (The Trustees of the University of Pennsylvania, priority 2006, dated 2013).

Molecular target: VMAT2 (Rattus norvegicus, UniProt Q01827)
Experiment: Competition for [3H](±)TBZ binding in rat striatal homogenates
Parameters: The basal forebrain regions of rat and mouse brains were then dissected; from tissue; host or cells: rat striatum / basal forebrain homogenate
Settings: Kd […] used for calculation

Sequence of VMAT2 (Q01827 whole entry): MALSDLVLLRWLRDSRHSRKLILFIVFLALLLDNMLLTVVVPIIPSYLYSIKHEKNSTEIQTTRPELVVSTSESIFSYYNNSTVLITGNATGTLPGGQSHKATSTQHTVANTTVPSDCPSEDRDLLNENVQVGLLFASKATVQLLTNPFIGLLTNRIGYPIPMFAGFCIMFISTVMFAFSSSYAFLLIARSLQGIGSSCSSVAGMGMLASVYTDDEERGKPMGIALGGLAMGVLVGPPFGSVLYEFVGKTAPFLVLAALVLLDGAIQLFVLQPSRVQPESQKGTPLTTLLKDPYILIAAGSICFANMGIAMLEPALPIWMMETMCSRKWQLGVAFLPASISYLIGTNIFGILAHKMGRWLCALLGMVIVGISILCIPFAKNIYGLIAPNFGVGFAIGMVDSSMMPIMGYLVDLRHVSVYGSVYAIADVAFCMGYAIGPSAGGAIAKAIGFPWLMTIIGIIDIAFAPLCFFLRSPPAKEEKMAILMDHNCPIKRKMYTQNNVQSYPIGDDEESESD

Ki ([3H](±)TBZ 1.0-1.5 nM) | Compound | Ki ([3H](±)-TBZ)
 | COc1cc2c(cc1OCCCF)CCN1CC(CC(C)C)C(O)CC21 (single isomer, unassigned) [FP-(−)-DTBZ] | > 3000 nM
11.8 ± 1.7 nM | COc1cc2c(cc1O)CCN1CC(CC(C)C)C(O)CC21 (racemic) [3,9-desmethyl-(±)DTBZ, (±)-9-O-Desmethyldihydrotetrabenazine, reference compound] | 
